The values that follow come from US10800791B2, “Triazole ACC inhibitors and uses thereof” (Gilead Apollo, LLC, priority 2015, dated 2020).

In one assay the target is human (hACC2) (Homo sapiens, UniProt O00763). Put plainly: In vitro ACC inhibition assay (ADP-Glo), hACC2. It counts as biochemical. As to conditions: 5 nM ACC2, 20 μM ATP, 20 μM acetyl-CoA. As for the experimental part:
The detailed procedure is as follows. […] 10 μL ADP glo reagent was added. […] 20 μL kinase detection reagent was added.

The test system of another assay is C. albicans. Put plainly: Antifungal Activity Assay (broth microtiter MIC), C. albicans. The format is cell-based, Candida albicans. As to conditions: 3 replicates, MIC recorded at 48 h; for MIC: Candida albicans, ATCC90028, 48 h, ATCC 90028, read-out: MIC, C. albicans ATCC 90028. A digest of the protocol:
(§1)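 Colonies from 24 h Sabouraud dextrose agar plates (35° C) are suspended in RPMI 1640+MOPS and diluted to give 2.5×10^3 CFU/mL in the wells. Plates are set up per CLSI M27-A3. Visual MIC is recorded at 48 h.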

The next assay relates to C. krusei. Put plainly: Antifungal Activity Assay (broth microtiter MIC), C. krusei. It counts as cell-based, Candida krusei. As to conditions: 3 replicates, MIC recorded at 48 h; for MIC: Pichia kudriavzevii, ATCC6258, 48 h, ATCC 6258, read-out: MIC, C. krusei ATCC 6258. The procedure, abridged: as §1
The subject of the next assay is C. parapsilosis. Description: Antifungal Activity Assay (broth microtiter MIC), C. parapsilosis. It counts as cell-based, Candida parapsilosis. As to conditions: 3 replicates, MIC recorded at 48 h; for MIC: Lodderomyces parapsilosis, ATCC22019, 48 h, ATCC 22019, read-out: MIC, C. parapsilosis ATCC 22019. A digest of the protocol:
as §1

The target of the next assay is fungal (fACC2) (UniProt Q00955). As to conditions: read-out: fACC2 (in vitro ACC2 Inhibition Assay, IC50), ADP-Glo, 5 nM ACC2, 20 μM ATP, 20 μM acetyl-CoA. (In ADP-Glo the light output rises with the ADP produced.)
Sequence of fungal (fACC2) (Q00955 whole entry): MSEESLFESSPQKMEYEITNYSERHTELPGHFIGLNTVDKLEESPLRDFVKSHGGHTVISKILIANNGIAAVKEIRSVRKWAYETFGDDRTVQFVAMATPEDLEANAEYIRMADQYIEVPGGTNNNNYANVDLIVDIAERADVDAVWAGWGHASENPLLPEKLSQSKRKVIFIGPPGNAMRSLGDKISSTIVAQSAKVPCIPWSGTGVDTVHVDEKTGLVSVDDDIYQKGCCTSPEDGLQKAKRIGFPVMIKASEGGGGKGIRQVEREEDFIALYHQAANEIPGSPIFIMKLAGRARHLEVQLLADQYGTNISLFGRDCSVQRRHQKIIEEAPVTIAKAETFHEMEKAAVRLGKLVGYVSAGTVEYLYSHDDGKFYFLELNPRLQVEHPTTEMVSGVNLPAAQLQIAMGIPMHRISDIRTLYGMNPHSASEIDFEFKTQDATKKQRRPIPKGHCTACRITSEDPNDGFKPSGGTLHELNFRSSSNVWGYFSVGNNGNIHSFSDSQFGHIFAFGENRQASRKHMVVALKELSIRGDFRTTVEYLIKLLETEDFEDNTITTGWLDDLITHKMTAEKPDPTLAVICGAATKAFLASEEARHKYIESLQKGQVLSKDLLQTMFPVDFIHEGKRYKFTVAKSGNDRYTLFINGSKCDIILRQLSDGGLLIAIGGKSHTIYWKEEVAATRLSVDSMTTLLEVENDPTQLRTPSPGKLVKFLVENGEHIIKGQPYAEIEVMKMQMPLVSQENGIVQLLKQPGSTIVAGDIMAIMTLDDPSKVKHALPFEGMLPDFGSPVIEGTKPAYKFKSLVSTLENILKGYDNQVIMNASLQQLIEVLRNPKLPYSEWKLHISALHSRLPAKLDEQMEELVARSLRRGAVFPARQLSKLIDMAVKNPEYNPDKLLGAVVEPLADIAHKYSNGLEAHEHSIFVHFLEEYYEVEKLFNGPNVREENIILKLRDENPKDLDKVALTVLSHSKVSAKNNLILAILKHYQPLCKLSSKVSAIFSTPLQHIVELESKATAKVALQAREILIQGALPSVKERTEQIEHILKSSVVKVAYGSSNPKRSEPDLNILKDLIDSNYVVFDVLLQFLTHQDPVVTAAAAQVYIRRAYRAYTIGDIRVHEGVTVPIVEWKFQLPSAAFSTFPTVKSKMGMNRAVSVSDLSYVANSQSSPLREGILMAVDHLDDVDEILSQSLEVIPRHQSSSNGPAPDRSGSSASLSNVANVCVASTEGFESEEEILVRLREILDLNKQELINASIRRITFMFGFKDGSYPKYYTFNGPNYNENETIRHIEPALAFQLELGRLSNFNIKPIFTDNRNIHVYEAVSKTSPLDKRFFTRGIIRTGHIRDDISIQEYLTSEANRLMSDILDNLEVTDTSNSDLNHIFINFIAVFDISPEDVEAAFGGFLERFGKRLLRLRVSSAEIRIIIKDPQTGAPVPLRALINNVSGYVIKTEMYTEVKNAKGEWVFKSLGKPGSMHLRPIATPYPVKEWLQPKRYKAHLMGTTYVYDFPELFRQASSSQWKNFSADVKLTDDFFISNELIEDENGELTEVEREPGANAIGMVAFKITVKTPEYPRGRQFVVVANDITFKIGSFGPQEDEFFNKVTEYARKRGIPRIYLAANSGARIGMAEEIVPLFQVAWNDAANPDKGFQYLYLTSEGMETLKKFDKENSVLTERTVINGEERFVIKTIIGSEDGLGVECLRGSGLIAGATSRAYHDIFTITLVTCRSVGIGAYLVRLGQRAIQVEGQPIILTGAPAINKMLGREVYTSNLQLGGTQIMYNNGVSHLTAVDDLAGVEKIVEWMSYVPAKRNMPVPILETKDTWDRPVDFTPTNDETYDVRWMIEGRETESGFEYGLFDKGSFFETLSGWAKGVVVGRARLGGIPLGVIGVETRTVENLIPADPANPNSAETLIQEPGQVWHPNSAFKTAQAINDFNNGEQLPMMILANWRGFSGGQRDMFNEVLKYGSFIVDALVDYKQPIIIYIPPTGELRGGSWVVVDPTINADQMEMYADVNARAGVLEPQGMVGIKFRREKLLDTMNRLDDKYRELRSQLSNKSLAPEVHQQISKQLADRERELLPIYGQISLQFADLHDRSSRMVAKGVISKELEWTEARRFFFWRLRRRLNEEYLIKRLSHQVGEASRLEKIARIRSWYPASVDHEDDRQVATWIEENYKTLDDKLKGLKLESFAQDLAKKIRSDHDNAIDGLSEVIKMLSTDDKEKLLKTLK

SMILES strings stand for the structures. In brackets after ≈: the same amount, converted by molar mass. Like-named read-outs stand apart in the source and are kept apart here.

Sequence of human (hACC2) (O00763 whole entry): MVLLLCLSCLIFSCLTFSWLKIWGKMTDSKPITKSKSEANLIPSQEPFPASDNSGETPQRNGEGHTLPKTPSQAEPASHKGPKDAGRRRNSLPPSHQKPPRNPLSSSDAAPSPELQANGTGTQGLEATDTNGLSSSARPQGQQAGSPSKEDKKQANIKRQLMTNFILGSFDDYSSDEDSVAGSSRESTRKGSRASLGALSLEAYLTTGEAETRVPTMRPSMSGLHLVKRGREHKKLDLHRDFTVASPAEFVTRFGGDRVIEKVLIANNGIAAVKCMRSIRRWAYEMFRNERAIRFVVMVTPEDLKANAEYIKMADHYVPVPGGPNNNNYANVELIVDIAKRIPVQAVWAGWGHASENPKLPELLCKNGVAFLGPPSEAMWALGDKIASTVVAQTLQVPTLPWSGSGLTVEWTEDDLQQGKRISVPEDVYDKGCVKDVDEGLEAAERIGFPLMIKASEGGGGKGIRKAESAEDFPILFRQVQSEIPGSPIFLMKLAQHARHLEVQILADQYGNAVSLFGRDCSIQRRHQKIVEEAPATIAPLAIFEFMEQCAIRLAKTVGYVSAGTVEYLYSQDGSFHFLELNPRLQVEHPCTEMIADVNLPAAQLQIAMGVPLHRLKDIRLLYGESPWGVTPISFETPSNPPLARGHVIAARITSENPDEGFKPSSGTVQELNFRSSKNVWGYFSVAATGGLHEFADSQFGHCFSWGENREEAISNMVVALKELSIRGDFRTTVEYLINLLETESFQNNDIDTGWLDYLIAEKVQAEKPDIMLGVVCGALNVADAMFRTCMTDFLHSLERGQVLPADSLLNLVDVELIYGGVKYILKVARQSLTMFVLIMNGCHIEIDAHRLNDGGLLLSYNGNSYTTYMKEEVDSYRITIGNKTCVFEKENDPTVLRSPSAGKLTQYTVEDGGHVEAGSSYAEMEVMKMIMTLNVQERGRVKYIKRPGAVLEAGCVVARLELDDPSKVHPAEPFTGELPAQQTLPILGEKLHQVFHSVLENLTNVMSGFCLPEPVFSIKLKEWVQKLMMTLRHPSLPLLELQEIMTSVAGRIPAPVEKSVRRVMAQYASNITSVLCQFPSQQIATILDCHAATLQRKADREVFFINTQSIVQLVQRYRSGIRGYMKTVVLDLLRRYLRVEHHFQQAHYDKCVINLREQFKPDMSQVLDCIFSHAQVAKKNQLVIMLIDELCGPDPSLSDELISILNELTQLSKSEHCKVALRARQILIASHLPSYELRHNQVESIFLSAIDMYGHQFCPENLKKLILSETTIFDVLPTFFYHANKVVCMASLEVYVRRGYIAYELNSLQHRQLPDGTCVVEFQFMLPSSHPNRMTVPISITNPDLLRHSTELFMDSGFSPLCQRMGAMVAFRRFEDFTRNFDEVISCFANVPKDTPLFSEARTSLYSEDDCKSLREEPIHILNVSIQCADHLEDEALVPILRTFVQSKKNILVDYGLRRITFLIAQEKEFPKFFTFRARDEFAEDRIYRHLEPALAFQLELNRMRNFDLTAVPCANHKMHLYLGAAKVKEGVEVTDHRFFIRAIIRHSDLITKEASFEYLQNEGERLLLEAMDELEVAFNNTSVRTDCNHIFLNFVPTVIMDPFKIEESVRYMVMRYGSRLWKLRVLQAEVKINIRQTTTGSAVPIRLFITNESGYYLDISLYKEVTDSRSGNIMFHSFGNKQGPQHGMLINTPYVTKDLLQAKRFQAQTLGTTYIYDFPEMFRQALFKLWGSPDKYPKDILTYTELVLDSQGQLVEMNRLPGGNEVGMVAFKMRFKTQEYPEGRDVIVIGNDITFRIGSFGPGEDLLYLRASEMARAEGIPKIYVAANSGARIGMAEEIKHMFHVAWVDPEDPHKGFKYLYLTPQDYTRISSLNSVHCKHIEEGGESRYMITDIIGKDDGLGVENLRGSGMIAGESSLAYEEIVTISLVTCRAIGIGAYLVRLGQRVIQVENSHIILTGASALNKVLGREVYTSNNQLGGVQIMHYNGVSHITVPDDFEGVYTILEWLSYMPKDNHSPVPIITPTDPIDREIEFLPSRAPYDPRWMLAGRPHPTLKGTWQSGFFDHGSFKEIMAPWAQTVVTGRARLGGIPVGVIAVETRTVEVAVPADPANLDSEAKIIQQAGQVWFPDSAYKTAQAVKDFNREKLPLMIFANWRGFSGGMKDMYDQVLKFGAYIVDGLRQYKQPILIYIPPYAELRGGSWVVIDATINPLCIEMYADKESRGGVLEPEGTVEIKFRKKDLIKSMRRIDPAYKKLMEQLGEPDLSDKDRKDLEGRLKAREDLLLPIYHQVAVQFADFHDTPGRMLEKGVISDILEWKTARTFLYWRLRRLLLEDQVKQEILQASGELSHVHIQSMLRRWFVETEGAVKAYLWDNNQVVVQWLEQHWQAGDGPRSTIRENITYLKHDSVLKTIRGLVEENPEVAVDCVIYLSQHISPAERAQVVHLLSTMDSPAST

As for `COc1ccc(F)cc1[C@H](Cn1c(=O)n(C(C)(C)C(=O)OC(C)C)c(=O)c2c(C)c(-n3nccn3)sc21)OCCO` [Compound I-129], the 50% inhibitory concentration (IC50) at human (hACC2) (Table 2a) was 1 to 5 nM; against human (hACC2) (Table 2b, additional results), 1 to 5 nM; on fungal (fACC2) (Table 2a), 1 to 5 nM; at fungal (fACC2) (Table 2b, additional results) it was 1 to 5 nM. In addition, the MIC in the assay with C. albicans (Table 3a) was 1.1 to 2 µg/mL (≈ 1.87 to 3.39 µM); with C. albicans (Table 3b (additional results)) it was 1.01 to 2 µg/mL (≈ 1.71 to 3.39 µM); in the assay with C. krusei (Table 3a), 0.25 to 1 µg/mL (≈ 0.424 to 1.7 µM); with C. krusei (Table 3b (additional results)), 0.25 to 1 µg/mL (≈ 0.424 to 1.7 µM); in the assay on C. parapsilosis (Table 3a) it was 0.25 to 1 µg/mL (≈ 0.424 to 1.7 µM); in the assay with C. parapsilosis (Table 3b (additional results)), > 4.01 µg/mL.

For the compound `COCCCO[C@@H](Cn1c(=O)n(C(C)C(=O)NC(C)C)c(=O)c2c(C)c(-n3nccn3)sc21)c1cc(F)ccc1OC` (stereo partly drawn) [Compound I-130], the IC50 on human (hACC2) (Table 2a) is 10 to 40 nM; at human (hACC2) (Table 2b, additional results), 10 to 40 nM; at fungal (fACC2) (Table 2a), 0.4 to 1 nM; on fungal (fACC2) (Table 2b, additional results), 0.3 to 1 nM. Further, the minimal inhibitory concentration (MIC) is 1.1 to 2 µg/mL (≈ 1.83 to 3.32 µM) in the assay with C. albicans (Table 3a); 2.01 to 4 µg/mL (≈ 3.34 to 6.64 µM) in the assay with C. albicans (Table 3b (additional results)); 2.1 to 4 µg/mL (≈ 3.48 to 6.64 µM) in the assay on C. krusei (Table 3a); 1.01 to 2 µg/mL (≈ 1.68 to 3.32 µM) in the assay with C. krusei (Table 3b (additional results)); 1.1 to 2 µg/mL (≈ 1.83 to 3.32 µM) with C. parapsilosis (Table 3a); 1.01 to 2 µg/mL (≈ 1.68 to 3.32 µM) in the assay with C. parapsilosis (Table 3b (additional results)).

With `COc1ccc(F)cc1[C@H](Cn1c(=O)n(C(C)C(=O)NC(C)C)c(=O)c2c(C)c(-n3nccn3)sc21)OCCO` (stereo partly drawn) [Compound I-131], the IC50 lay within 5 to 10 nM on human (hACC2) (Table 2a); 5 to 10 nM on human (hACC2) (Table 2b, additional results); 0.4 to 1 nM at fungal (fACC2) (Table 2a); 0.3 to 1 nM at fungal (fACC2) (Table 2b, additional results). The minimum inhibitory concentration (MIC) lay within 1.1 to 2 µg/mL (≈ 1.91 to 3.48 µM) in the assay with C. albicans (Table 3a); 2.01 to 4 µg/mL (≈ 3.5 to 6.96 µM) in the assay with C. albicans (Table 3b (additional results)); 0.25 to 1 µg/mL (≈ 0.435 to 1.74 µM) in the assay with C. krusei (Table 3a); 1.01 to 2 µg/mL (≈ 1.76 to 3.48 µM) in the assay on C. krusei (Table 3b (additional results)); 1.1 to 2 µg/mL (≈ 1.91 to 3.48 µM) with C. parapsilosis (Table 3a); 1.01 to 2 µg/mL (≈ 1.76 to 3.48 µM) in the assay with C. parapsilosis (Table 3b (additional results)).

As for `COCCO[C@@H](Cn1c(=O)n(C(C)(C)C(=O)NC(C)C)c(=O)c2c(C)c(-n3nccn3)sc21)c1ccccc1OC` [Compound I-133], the IC50 is 5 to 10 nM on human (hACC2) (Table 2a); 5 to 10 nM at human (hACC2) (Table 2b, additional results); 1 to 5 nM on fungal (fACC2) (Table 2a); 1 to 5 nM on fungal (fACC2) (Table 2b, additional results). Also, the minimal inhibitory concentration (MIC) in the assay on C. albicans (Table 3a) is 1.1 to 2 µg/mL (≈ 1.88 to 3.42 µM); in the assay on C. albicans (Table 3b (additional results)) it was 1.01 to 2 µg/mL (≈ 1.73 to 3.42 µM); in the assay on C. krusei (Table 3a) it was 1.1 to 2 µg/mL (≈ 1.88 to 3.42 µM); with C. krusei (Table 3b (additional results)) it was 0.25 to 1 µg/mL (≈ 0.428 to 1.71 µM); in the assay with C. parapsilosis (Table 3a) it was 2.1 to 4 µg/mL (≈ 3.59 to 6.84 µM); in the assay on C. parapsilosis (Table 3b (additional results)) it was 0.25 to 1 µg/mL (≈ 0.428 to 1.71 µM).

Turning to `COCCO[C@@H](Cn1c(=O)n(C(C)(C)C(=O)NC2CCC2)c(=O)c2c(C)c(-n3nccn3)sc21)c1cc(F)ccc1OC` [Compound I-134], the half-inhibitory concentration (IC50) was 5 to 10 nM against human (hACC2) (Table 2a); 5 to 10 nM on human (hACC2) (Table 2b, additional results); 1 to 5 nM on fungal (fACC2) (Table 2a); 1 to 5 nM on fungal (fACC2) (Table 2b, additional results). Besides, the results for the “MIC, C. albicans ATCC 90028” value in the assay with C. albicans (Table 3a) and against C. albicans (Table 3b (additional results)) were “B (MIC of 1.1-2.0 μg/mL)” and “D (MIC of >4.01 μg/mL)”, respectively. The “MIC, C. krusei ATCC 6258” value in the assay on C. krusei (Table 3a) is on record as “B (MIC of 1.1-2.0 μg/mL)”; in the assay with C. krusei (Table 3b (additional results)), “B (MIC of 1.01-2.0 μg/mL)”. Moreover, the “MIC, C. parapsilosis ATCC 22019” value against C. parapsilosis (Table 3a) is on record as “B (MIC of 1.1-2.0 μg/mL)”; against C. parapsilosis (Table 3b (additional results)), “A (MIC of 0.25-1.0 μg/mL)”.

With `COc1ccc(F)cc1[C@H](Cn1c(=O)n(C(C)(C)C(=O)NC(C)C)c(=O)c2c(C)c(-n3nccn3)sc21)OCCC(=O)O` [Compound I-135, 3-[(1R)-1-(5-fluoro-2-methoxyphenyl)-2-(5-methyl-3-[1-methyl-1-[(propan-2-yl)carbamoyl]ethyl]-2,4-dioxo-6-(2H-1,2,3-triazol-2-yl)-1H,2H,3H,4H-thieno[2,3-d]pyrimidin-1-yl)ethoxy]propanoic acid], the half-maximal inhibitory concentration (IC50) against human (hACC2) (Table 2a) is 10 to 40 nM; against human (hACC2) (Table 2b, additional results), 10 to 40 nM; at fungal (fACC2) (Table 2a), 1 to 5 nM; on fungal (fACC2) (Table 2b, additional results) it was 0.3 to 1 nM. Also, the MIC with C. albicans (Table 3a) lay in the range of 0.25 to 1 µg/mL (≈ 0.405 to 1.62 µM); with C. albicans (Table 3b (additional results)), 0.25 to 1 µg/mL (≈ 0.405 to 1.62 µM); with C. krusei (Table 3a) it was 2.1 to 4 µg/mL (≈ 3.41 to 6.49 µM); in the assay on C. krusei (Table 3b (additional results)), 0.25 to 1 µg/mL (≈ 0.405 to 1.62 µM); in the assay on C. parapsilosis (Table 3a), 2.1 to 4 µg/mL (≈ 3.41 to 6.49 µM); in the assay on C. parapsilosis (Table 3b (additional results)), 0.25 to 1 µg/mL (≈ 0.405 to 1.62 µM).

For orientation: IC50 means the concentration that gives 50% inhibition. In general, MIC refers to the least concentration at which growth counts as inhibited.
